Here are results for 24 compounds from patent publication US20250101041A1, “POSITIVE ALLOSTERIC MODULATORS OF THE MUSCARINIC ACETYLCHOLINE RECEPTOR M4” (Vanderbilt University, priority 2022, published 2025).

This assay has as its target T1, human mAChR M4 (Homo sapiens, UniProt P08173).
T1 construct: expressed in transfected cells; host or cells: CHO-K1 (American Type Culture Collection), stably expressing hM4 and Gqi5
T1 sequence (P08173 1-479): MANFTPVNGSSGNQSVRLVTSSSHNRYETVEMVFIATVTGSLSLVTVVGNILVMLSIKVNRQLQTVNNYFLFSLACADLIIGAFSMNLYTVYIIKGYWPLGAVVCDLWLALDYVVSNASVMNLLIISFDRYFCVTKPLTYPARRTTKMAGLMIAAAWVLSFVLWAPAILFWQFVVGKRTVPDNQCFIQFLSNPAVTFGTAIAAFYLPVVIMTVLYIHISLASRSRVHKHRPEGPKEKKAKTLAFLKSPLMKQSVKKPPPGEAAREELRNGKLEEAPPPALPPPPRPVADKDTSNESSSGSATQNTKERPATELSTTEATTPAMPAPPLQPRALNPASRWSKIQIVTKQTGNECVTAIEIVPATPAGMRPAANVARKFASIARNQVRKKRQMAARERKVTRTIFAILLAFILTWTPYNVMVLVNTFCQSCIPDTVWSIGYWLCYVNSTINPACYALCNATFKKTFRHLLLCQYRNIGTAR
As to the kind of experiment: mAChR M4 cell-based functional assay: calcium mobilization (Fluo-4, FDSS), potentiation of EC20 acetylcholine response in hM4-Gqi5 CHO-K1 cells. The note with it: human M4; for Emax at 30 µM: CHO-K1, % ACh maximum at 30 μM; for EC50: potentiation of EC20 acetylcholine response, calcium mobilization. The essentials:
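Readout is the fluorescence-ratio rise at 1 Hz on FDSS, with PAM activity taken as concentration-dependent enhancement of the EC20 acetylcholine response, fitted four-parameter for EC50/Emax. hM4-Gqi5 CHO-K1 cells carried Fluo-4 AM dye; test compounds (11 points, 1:3) preceded EC20 acetylcholine additions at 144 s and 230 s.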

In the case of `Cc1cc(=O)n2nc(N3CCc4ncc(-c5ccc(C)c(F)c5)cc4C3)c(C)cc2n1` [Compound 1-206, 7-(3-(3-fluoro-4-methylphenyl)-7,8-dihydro-1,6-naphthyridin-6(5H)-yl)-2,8-dimethyl-4H-pyrimido[1,2-b]pyridazin-4-one], the Emax at 30 µM was 71% and the EC50 was 0.409 µM.
On the same counts, the results for `Cc1cc(=O)n2nc(N3CCc4ncc(-c5cnc(Cl)cc5C)cc4C3)c(C)cc2n1` [Compound 1-207, 7-(3-(6-chloro-4-methylpyridin-3-yl)-7,8-dihydro-1,6-naphthyridin-6(5H)-yl)-2,8-dimethyl-4H-pyrimido[1,2-b]pyridazin-4-one] are 91% and 0.315 µM.
The matching figures for `Cc1cc(=O)n2nc(N3CCc4ncc(-c5cc(F)c(F)cc5F)cc4C3)c(C)cc2n1` [Compound 1-208, 2,8-dimethyl-7-(3-(2,4,5-trifluorophenyl)-7,8-dihydro-1,6-naphthyridin-6(5H)-yl)-4H-pyrimido[1,2-b]pyridazin-4-one]: 86% and 0.518 µM.
On the same counts, the results for `Cc1cc(=O)n2nc(N3CCc4ncc(-c5cnc(F)cc5C)cc4C3)c(C)cc2n1` [Compound 1-209, 7-(3-(6-fluoro-4-methylpyridin-3-yl)-7,8-dihydro-1,6-naphthyridin-6(5H)-yl)-2,8-dimethyl-4H-pyrimido[1,2-b]pyridazin-4-one] are 88% and 0.266 µM.
Take `Cc1cc(=O)n2nc(N3CCc4ncc(-c5cc(F)ccc5C)cc4C3)c(C)cc2n1` [Compound 1-210, 7-(3-(5-fluoro-2-methylphenyl)-7,8-dihydro-1,6-naphthyridin-6(5H)-yl)-2,8-dimethyl-4H-pyrimido[1,2-b]pyridazin-4-one]: the Emax at 30 µM was 84% and the EC50 came to 0.287 µM.
The matching figures for `Cc1cc(=O)n2nc(N3CCc4ncc(-c5cccc(F)c5)cc4C3)c(C)cc2n1` [Compound 1-211, 7-(3-(3-fluorophenyl)-7,8-dihydro-1,6-naphthyridin-6(5H)-yl)-2,8-dimethyl-4H-pyrimido[1,2-b]pyridazin-4-one]: 76% and 0.446 µM.
Regarding `Cc1cc(=O)n2nc(N3CCc4ncc(-c5ccc(F)nc5)cc4C3)c(C)cc2n1` [Compound 1-212, 7-(3-(6-fluoropyridin-3-yl)-7,8-dihydro-1,6-naphthyridin-6(5H)-yl)-2,8-dimethyl-4H-pyrimido[1,2-b]pyridazin-4-one], the Emax at 30 µM amounted to 83% and the EC50 stood at 0.867 µM.
As to `Cc1cc(=O)n2nc(N3CCc4ncc(-c5ccc(F)c(F)c5)cc4C3)c(C)cc2n1` [Compound 1-213, 7-(3-(3,4-difluorophenyl)-7,8-dihydro-1,6-naphthyridin-6(5H)-yl)-2,8-dimethyl-4H-pyrimido[1,2-b]pyridazin-4-one], the Emax at 30 µM came to 82% and the EC50 is 0.443 µM.
The matching figures for `Cc1cc(=O)n2nc(N3CCc4ncc(-c5cnccc5C)cc4C3)c(C)cc2n1` [Compound 1-214, 2,8-dimethyl-7-(3-(4-methylpyridin-3-yl)-7,8-dihydro-1,6-naphthyridin-6(5H)-yl)-4H-pyrimido[1,2-b] pyridazin-4-one]: 82% and 0.139 µM.
On the same counts, the results for `Cc1cc(=O)n2nc(N3CCc4ncc(-c5cnn(C(F)F)c5)cc4C3)c(C)cc2n1` [Compound 1-215, 7-(3-(1-(difluoromethyl)-1H-pyrazol-4-yl)-7,8-dihydro-1,6-naphthyridin-6(5H)-yl)-2,8-dimethyl-4H-pyrimido[1,2-b]pyridazin-4-one] are 85% and 0.338 µM.
On the same counts, the results for `COc1ccc(-c2cnc3c(c2)CN(c2nn4c(=O)cc(C)nc4cc2C)CC3)cc1F` [Compound 1-216, 7-(3-(3-fluoro-4-methoxyphenyl)-7,8-dihydro-1,6-naphthyridin-6(5H)-yl)-2,8-dimethyl-4H-pyrimido[1,2-b]pyridazin-4-one] are 79% and 0.38 µM.
On to `Cc1cc(=O)n2nc(N3CCc4ncc(-c5cn6ccnc6cc5C)cc4C3)c(C)cc2n1` [Compound 1-217, 2,8-dimethyl-7-(3-(7-methylimidazo[1,2-a]pyridin-6-yl)-7,8-dihydro-1,6-naphthyridin-6(5H)-yl)-4H-pyrimido[1,2-b]pyridazin-4-one], for which the Emax at 30 µM amounted to 60% and the EC50 was 0.655 µM.
Take `Cc1cc(=O)n2nc(N3CCc4ncc(-c5c(C)nn(C)c5C)cc4C3)c(C)cc2n1` [Compound 1-218, 2,8-dimethyl-7-(3-(1,3,5-trimethyl-1H-pyrazol-4-yl)-7,8-dihydro-1,6-naphthyridin-6(5H)-yl)-4H-pyrimido[1,2-b] pyridazin-4-one]: the Emax at 30 µM came to 92% and the EC50 was determined as 0.793 µM.
As for `CCn1cc(-c2cnc3c(c2)CN(c2nn4c(=O)cc(C)nc4cc2C)CC3)cn1` [Compound 1-219, 7-(3-(1-ethyl-1H-pyrazol-4-yl)-7,8-dihydro-1,6-naphthyridin-6(5H)-yl)-2,8-dimethyl-4H-pyrimido[1,2-b]pyridazin-4-one], the maximal response (Emax) at 30 µM turned out to be 80% and the EC50 was determined as 0.341 µM.
For `Cc1cc(=O)n2nc(N3CCc4ncc(-c5ccc6nccn6c5)cc4C3)c(C)cc2n1` [Compound 1-220, 7-(3-(imidazo[1,2-a]pyridin-6-yl)-7,8-dihydro-1,6-naphthyridin-6(5H)-yl)-2,8-dimethyl-4H-pyrimido[1,2-b]pyridazin-4-one], the Emax at 30 µM is 70% and the EC50 came out at 0.747 µM.
The matching figures for `Cc1cc(=O)n2nc(N3CCc4ncc(-c5ccc(N(C)C)nc5)cc4C3)c(C)cc2n1` [Compound 1-221, 7-(3-(6-(dimethylamino)pyridin-3-yl)-7,8-dihydro-1,6-naphthyridin-6(5H)-yl)-2,8-dimethyl-4H-pyrimido[1,2-b]pyridazin-4-one]: 58% and 0.17 µM.
Turning to `Cc1ccccc1-c1cnc2c(c1)CN(c1nn3c(=O)ccnc3c(C)c1C)CC2` [Compound 1-222, 8,9-dimethyl-7-(3-(o-tolyl)-7,8-dihydro-1,6-naphthyridin-6(5H)-yl)-4H-pyrimido[1,2-b] pyridazin-4-one], the Emax at 30 µM was 83% and the EC50 was found to be 0.074 µM.
With `Cc1c(N2CCc3ncc(-c4cncc(C#N)c4)cc3C2)nn2c(=O)ccnc2c1C` [Compound 1-223, 5-(6-(8,9-dimethyl-4-oxo-4H-pyrimido[1,2-b]pyridazin-7-yl)-5,6,7,8-tetrahydro-1,6-naphthyridin-3-yl)nicotinonitrile], the Emax at 30 µM came out at 64% and the EC50 stood at 0.618 µM.
The matching figures for `Cc1c(N2CCc3ncc(-c4cnc5ccccc5c4)cc3C2)nn2c(=O)ccnc2c1C` [Compound 1-224, 8,9-dimethyl-7-(3-(quinolin-3-yl)-7,8-dihydro-1,6-naphthyridin-6(5H)-yl)-4H-pyrimido[1,2-b]pyridazin-4-one]: 60% and 0.651 µM.
The matching figures for `Cc1c(N2CCc3ncc(-c4ccc5nccn5c4)cc3C2)nn2c(=O)ccnc2c1C` [Compound 1-225, 7-(3-(imidazo[1,2-a]pyridin-6-yl)-7,8-dihydro-1,6-naphthyridin-6(5H)-yl)-8,9-dimethyl-4H-pyrimido[1,2-b]pyridazin-4-one]: 66% and 0.232 µM.
On the same counts, the results for `Cc1ccc(-c2cnc3c(c2)CN(c2nn4c(=O)cc(CC5CCCC5)nc4c(C)c2C)CC3)cn1` [Compound 1-226, 2-(cyclopentylmethyl)-8,9-dimethyl-7-(3-(6-methylpyridin-3-yl)-7,8-dihydro-1,6-naphthyridin-6(5H)-yl)-4H-pyrimido[1,2-b]pyridazin-4-one] are 59% and 1.19 µM.
Turning to `COCc1cc(=O)n2nc(N3CCc4ncc(-c5cc(F)ccc5C)cc4C3)c(C)c(C)c2n1` [Compound 1-227, 7-(3-(5-fluoro-2-methylphenyl)-7,8-dihydro-1,6-naphthyridin-6(5H)-yl)-2-(methoxymethyl)-8,9-dimethyl-4H-pyrimido[1,2-b]pyridazin-4-one], the Emax at 30 µM was found to be 83% and the EC50 worked out at 0.135 µM.
With `COCc1cc(=O)n2nc(N3CCc4ncc(-c5cnccc5C)cc4C3)c(C)c(C)c2n1` [Compound 1-228, 2-(methoxymethyl)-8,9-dimethyl-7-(3-(4-methylpyridin-3-yl)-7,8-dihydro-1,6-naphthyridin-6(5H)-yl)-4H-pyrimido[1,2-b] pyridazin-4-one], the Emax at 30 µM is 85% and the EC50 was 0.034 µM.
The matching figures for `COCc1cc(=O)n2nc(N3CCc4ncc(-c5cnc(F)cc5C)cc4C3)c(C)c(C)c2n1` [Compound 1-229, 7-(3-(6-fluoro-4-methylpyridin-3-yl)-7,8-dihydro-1,6-naphthyridin-6(5H)-yl)-2-(methoxymethyl)-8,9-dimethyl-4H-pyrimido[1,2-b]pyridazin-4-one]: 90% and 0.048 µM.
